This is an account of results in patent US8466162B2, “5-alkynyl-pyridines” (Boehringer Ingelheim International GmbH, priority 2011, dated 2013).

One test deals with T1, PI3Kalpha (Homo sapiens, UniProt P42336).
T1 construct: His (N); made in house; host or cells: SF9 insect cells (baculovirus co-infection)
Description: Inhibition of PI3Kalpha-induced PIP-2 phosphorylation (filter-binding assay, 33P-ATP). Format: biochemical. To be noted: PI3 Kinase alpha (p85alpha/His-p110alpha), 1 μM ATP; read-out: IC50 PI3Kα.

The next test relates to H460 cells. Description: alamarBlue H460 cell assay (antiproliferative/cytotoxicity). To be noted: NCI-H460; H460 human lung carcinoma cells. Format: cell-based. The method, boiled down: (§1)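 Read-out: alamarBlue reduction by metabolically active cells, fluorescence ex 530-560 nm/em 590 nm, measured 8 h after dye addition at 37° C. Cells had been exposed to compound for 5-6 days over a 10-point 1:3 series starting at 10 μM final. EC50 derived after medium-blank subtraction.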
A general note: The colour change of resazurin is a common sign of viable cells or microbes.

The test system of another test is MB453 cells. Description: alamarBlue MB453 cell assay (antiproliferative/cytotoxicity). Format: cell-based. The conditions noted are these: Homo sapiens; MDA MB 453 breast cancer cell line. An excerpt: (§2) The H460, MB453, U87, MCF7 and BT474 alamarBlue cell assays provide EC50 values indicative of the antiproliferative or cytotoxic effects of the compounds to respectively the H460 (human non small cell line cancer), MB-453 (breast cancer cell line), U87 (glioblastoma cell line), MCF7 (breast cancer cell line) and BT474 (breast cancer cell line). As known in the field, antiproliferative or cytotoxic effect against this cell lines would be expected to be indicative of activity in treating lung, breast and brain cancers. See R. Marone R et al. Biochim. Biophys. Acta. 2008 January; 1784(1):159-85. S. Yaguchi et al., J. Natl. Cancer Inst. 2006 Apr. 19; 98(8):545-56.
(§3) Method Type: Antiproliferative/Cytotoxicity
(§4) alamarBlue® is designed to provide a rapid and sensitive measure of cell proliferation and cytotoxicity in various human and animal cell lines. The assay is based on the reduction of alamarBlue in the reducing environment of living (metabolically active) cells. In the presence of added cytotoxic or antiproliferative compounds, the innate metabolic activity ceases.
(§5) AlamarBlue is soluble and stable in culture medium. Measurements are made fluorometrically by exciting at 530-560 nm and measuring emission at 590 nm. In reporting percent alamarBlue reduction by monitoring fluorescence, data are expressed as fluorescence emission intensity units as a function of time of incubation.
(§6) 3. Equipment • 96-well plates, flat bottom (Falcon, Cat. No.: 353072) • 96-well plates, U-shaped (Costar, Cat. No.: 3799) • CO2-Incubator • Microplate Reader, Spectramax Plus, Molecular Devices 4. Typical Procedure • Day 0: Seed 3000 BT-474 cells (IMDM/5% FCS, 1% NEAA, 1% Sodiumpyruvat) in 150 μl medium into a 96-well plate, flat bottom (include mediumblank). Incubate plates at 37° C. in a CO2 incubator overnight. • Day 1: Dilute compounds to a concentration 40 μM ->1:3 in medium, 10 dilution steps, in 96-well plates. • Add 50 μl per well of each dilution (total volume per well 200 μl; final conc. of cpds: 10 μM ->1:3). If required, test further dilutions. • All concentrations are tested in duplicates. • Controls: Cells w/o cpd. (+50 μl medium/DMSO). • Cells are incubated with compounds for 5-6 days. • Day 6 or 7: Add 25 μl of alamarBlue solution to each well and incubate for 8 hours at 37° C. Measure fluorescence by exciting at 530-560 nm and measuring emission at 590 nm 5. Evaluation • Subtract average value for medium blank from sample readings • Calculate EC50 using GraphPad Prism (Fifty)

Another test has as its system U87 cells. The test can be described thus: alamarBlue U87 cell assay (antiproliferative/cytotoxicity). Format: cell-based. To be noted: U-87MG human glioblastoma cells.
From the text: as §2, §3, §4, §5, §6

The next test has as its system MCF7 cells. Description: alamarBlue MCF7 cell assay (antiproliferative/cytotoxicity). Format: cell-based. To be noted: MCF7 human breast cancer cell line. The method, boiled down:
as §1

The test system of the next test is BT474 cells. Description: alamarBlue BT474 cell assay (antiproliferative/cytotoxicity). Format: cell-based. To be noted: BT-474 human breast cancer cell line, 5-6 days incubation. The method, boiled down:
as §1

T1 sequence (P27986 whole entry): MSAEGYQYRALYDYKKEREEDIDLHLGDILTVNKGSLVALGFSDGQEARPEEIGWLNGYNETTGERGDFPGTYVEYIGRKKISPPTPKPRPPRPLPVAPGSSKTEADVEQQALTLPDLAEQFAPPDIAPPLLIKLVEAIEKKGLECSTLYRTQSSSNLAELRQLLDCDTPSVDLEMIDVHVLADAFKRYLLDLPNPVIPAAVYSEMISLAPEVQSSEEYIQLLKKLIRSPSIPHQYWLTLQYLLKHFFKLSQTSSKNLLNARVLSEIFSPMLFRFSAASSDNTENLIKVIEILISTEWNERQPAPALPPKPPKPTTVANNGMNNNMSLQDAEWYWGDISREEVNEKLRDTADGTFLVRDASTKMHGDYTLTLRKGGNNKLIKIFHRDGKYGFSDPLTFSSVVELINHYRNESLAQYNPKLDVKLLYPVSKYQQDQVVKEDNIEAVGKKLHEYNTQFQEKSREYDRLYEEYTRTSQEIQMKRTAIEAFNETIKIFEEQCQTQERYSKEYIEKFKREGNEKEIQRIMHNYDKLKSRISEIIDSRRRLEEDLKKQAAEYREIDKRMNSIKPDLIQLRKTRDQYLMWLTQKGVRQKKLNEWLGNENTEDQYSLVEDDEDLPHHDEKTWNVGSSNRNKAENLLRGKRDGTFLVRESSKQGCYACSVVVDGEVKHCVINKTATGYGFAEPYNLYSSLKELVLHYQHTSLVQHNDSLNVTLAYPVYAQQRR
T1 sequence (P42336 whole entry): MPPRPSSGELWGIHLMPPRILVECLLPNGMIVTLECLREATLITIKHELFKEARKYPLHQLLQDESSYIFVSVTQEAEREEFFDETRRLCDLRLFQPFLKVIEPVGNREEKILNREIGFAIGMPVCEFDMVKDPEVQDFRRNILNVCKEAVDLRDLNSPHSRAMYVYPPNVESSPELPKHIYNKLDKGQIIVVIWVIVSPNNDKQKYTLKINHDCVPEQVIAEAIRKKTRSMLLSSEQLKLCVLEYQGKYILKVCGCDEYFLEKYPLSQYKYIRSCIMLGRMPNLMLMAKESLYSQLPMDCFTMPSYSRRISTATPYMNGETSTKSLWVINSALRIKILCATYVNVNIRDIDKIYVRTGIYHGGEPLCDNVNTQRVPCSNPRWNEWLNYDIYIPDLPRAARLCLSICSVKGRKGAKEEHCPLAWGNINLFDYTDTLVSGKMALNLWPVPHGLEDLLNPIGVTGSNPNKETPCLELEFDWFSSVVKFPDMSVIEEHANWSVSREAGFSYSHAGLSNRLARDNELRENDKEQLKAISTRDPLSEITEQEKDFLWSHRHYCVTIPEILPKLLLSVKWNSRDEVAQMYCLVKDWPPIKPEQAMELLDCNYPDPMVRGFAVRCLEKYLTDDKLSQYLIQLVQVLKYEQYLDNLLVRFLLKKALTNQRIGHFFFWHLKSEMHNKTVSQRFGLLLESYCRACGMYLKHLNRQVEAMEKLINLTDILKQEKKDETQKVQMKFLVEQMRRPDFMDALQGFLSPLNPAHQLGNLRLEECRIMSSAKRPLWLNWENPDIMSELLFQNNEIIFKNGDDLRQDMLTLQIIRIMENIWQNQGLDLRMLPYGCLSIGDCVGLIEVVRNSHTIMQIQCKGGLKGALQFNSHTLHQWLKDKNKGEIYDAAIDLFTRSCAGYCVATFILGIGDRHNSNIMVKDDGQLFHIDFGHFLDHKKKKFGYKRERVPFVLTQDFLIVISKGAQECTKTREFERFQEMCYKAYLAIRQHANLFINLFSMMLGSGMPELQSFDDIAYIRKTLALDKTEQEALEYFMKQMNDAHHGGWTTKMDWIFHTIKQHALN

A word on the IC50: it is the concentration that inhibits the measured activity by half. Usually EC50 stands for the concentration needed to bring the measured effect to its halfway point. In the case of `CCc1ncnc(-c2ccnc(C)c2)c1C#Cc1cnc(C)c(NS(=O)(=O)c2cn(C)cn2)c1` [Example 93, 1-Methyl-1H-imidazole-4-sulfonic acid {5-[4-ethyl-6-(2-methyl-pyridin-4-yl)-pyrimidin-5-ylethynyl]-2-methyl-pyridin-3-yl}-amide], at PI3Kalpha, the half-inhibitory concentration (IC50) came out at 1 nM. The concentration giving a half-maximal response (EC50) was determined as 293 nM in the test with H460 cells; 149 nM in the test with MB453 cells; 562 nM in the test on U87 cells; 194 nM with MCF7 cells; 406 nM with BT474 cells.

As to `Cc1cc(-c2ncnc(C)c2C#Cc2cnc(C)c(NS(C)(=O)=O)c2)ccn1` [Example 38, N-{2-Methyl-5-[4-methyl-6-(2-methyl-pyridin-4-yl)-pyrimidin-5-ylethynyl]-pyridin-3-yl}-methanesulfonamide], the IC50 at PI3Kalpha amounted to 2 nM. The EC50 in the test on H460 cells amounted to 2600 nM; in the test with MB453 cells, 317 nM; in the test with U87 cells, 893 nM; in the test on MCF7 cells, 186 nM; in the test on BT474 cells it was 344 nM.

With `CCc1ncnc(-c2ccnc(C)c2)c1C#Cc1cnc(C)c(NS(=O)(=O)c2ccc(C)cc2C)c1` [Example 92, N-{5-[4-Ethyl-6-(2-methyl-pyridin-4-yl)-pyrimidin-5-ylethynyl]-2-methyl-pyridin-3-yl}-2,4-dimethyl-benzenesulfonamide], the 50% inhibitory concentration (IC50) on PI3Kalpha came to 7 nM. The concentration for a half-maximal effect (EC50) in the test on H460 cells was 365 nM; in the test on MB453 cells, 986 nM; in the test with U87 cells, 983 nM; in the test with MCF7 cells it was 228 nM; in the test on BT474 cells, 483 nM.

As for `CCc1ncnc(-c2ccc(OC)cc2F)c1C#Cc1cnc(C)c(NS(C)(=O)=O)c1` [Example 71, N-{5-[4-Ethyl-6-(2-fluoro-4-methoxy-phenyl)-pyrimidin-5-ylethynyl]-2-methyl-pyridin-3-yl}-methanesulfonamide], the half-inhibitory concentration (IC50) at PI3Kalpha stood at 9 nM. Also, the concentration giving a half-maximal response (EC50) with H460 cells came out at 683 nM; in the test with MB453 cells, 558 nM; in the test on U87 cells it was 1300 nM; with MCF7 cells it was 389 nM; in the test with BT474 cells it was 1020 nM.

On to `Cc1ncc(C#Cc2c(C)ncnc2-c2ccc(C(=O)N3CCN(C)CC3)c(F)c2)cc1NS(C)(=O)=O` [Example 37, N-(5-{4-[3-Fluoro-4-(4-methyl-piperazine-1-carbonyl)-phenyl]-6-methyl-pyrimidin-5-ylethynyl}-2-methyl-pyridin-3-yl)-methanesulfonamide], for which the IC50 on PI3Kalpha amounted to 5 nM. Also, the 50% effective concentration (EC50) is 25000 nM with H460 cells; 685 nM with MB453 cells; 3040 nM in the test with U87 cells; 4000 nM with MCF7 cells; 1020 nM in the test on BT474 cells.

As for `COc1ncc(C#Cc2c(C)ncnc2-c2ccnc(C)c2)cc1NS(=O)(=O)c1ccc(F)cc1F` [Example 44, 2,4-Difluoro-N-{2-methoxy-5-[4-methyl-6-(2-methyl-pyridin-4-yl)-pyrimidin-5-ylethynyl]-pyridin-3-yl}-benzenesulfonamide], at PI3Kalpha, the IC50 was determined as 0.55 nM. Moreover, the concentration giving a half-maximal response (EC50) in the test with H460 cells stood at 15 nM; in the test on MB453 cells, 37 nM; with U87 cells, 121 nM; in the test on MCF7 cells, 3 nM; in the test on BT474 cells it was 23 nM.

Take `COc1ccc(-c2ncnc(C)c2C#Cc2cnc(OC)c(NS(=O)(=O)c3ccc(F)cc3F)c2)cc1OC` [Example 45, N-{5-[4-(3,4-Dimethoxy-phenyl)-6-methyl-pyrimidin-5-ylethynyl]-2-methoxy-pyridin-3-yl}-2,4-difluoro-benzenesulfonamide]: the 50% inhibitory concentration (IC50) at PI3Kalpha was 1 nM. Besides, the concentration for a half-maximal effect (EC50) in the test on H460 cells came out at 11 nM; in the test on MB453 cells it was 34 nM; in the test with U87 cells, 131 nM; in the test with MCF7 cells, 5 nM; in the test on BT474 cells, 10 nM.

In the case of `CCc1ncnc(-c2ccnc(C)c2)c1C#Cc1cnc(C)c(NS(=O)(=O)c2cccnc2)c1` [Example 91, Pyridine-3-sulfonic acid {5-[4-ethyl-6-(2-methyl-pyridin-4-yl)-pyrimidin-5-ylethynyl]-2-methyl-pyridin-3-yl}-amide], on PI3Kalpha, the IC50 is 0.39 nM. The EC50 in the test with H460 cells was found to be 799 nM; with MB453 cells it was 164 nM; with U87 cells it was 476 nM; in the test with MCF7 cells it was 137 nM; in the test with BT474 cells, 206 nM.

For `CCc1ncnc(-c2ccnc(C(C)(C)C)c2)c1C#Cc1cnc(C)c(NS(C)(=O)=O)c1` [Example 75, N-{5-[4-(2-tert-Butyl-pyridin-4-yl)-6-ethyl-pyrimidin-5-ylethynyl]-2-methyl-pyridin-3-yl}-methanesulfonamide], the IC50 on PI3Kalpha stood at 1 nM. Moreover, the concentration giving a half-maximal response (EC50) was 200 nM in the test on H460 cells; 143 nM in the test on MB453 cells; 449 nM with U87 cells; 79 nM with MCF7 cells; 169 nM in the test with BT474 cells.

As to `CCc1ncnc(-c2ccnc(C)c2)c1C#Cc1cnc(C)c(NS(=O)(=O)c2ccc(F)cc2F)c1` [Example 10, N-{5-[4-Ethyl-6-(2-methyl-pyridin-4-yl)-pyrimidin-5-ylethynyl]-2-methyl-pyridin-3-yl}-2,4-difluoro-benzenesulfonamide], the IC50 at PI3Kalpha turned out to be 0.56 nM. Moreover, the EC50 is 92 nM in the test with H460 cells; 69 nM in the test with MB453 cells; 326 nM in the test with U87 cells; 29 nM in the test with MCF7 cells; 75 nM with BT474 cells.

Consider `COc1ncc(C#Cc2c(C)ncnc2-c2ccc(C(=O)N3CCN(C)CC3)c(F)c2)cc1NS(=O)(=O)c1ccc(F)cc1F` [Example 46, 2,4-Difluoro-N-(5-{4-[3-fluoro-4-(4-methyl-piperazine-1-carbonyl)-phenyl]-6-methyl-pyrimidin-5-ylethynyl}-2-methoxy-pyridin-3-yl)-benzenesulfonamide], for which the half-maximal inhibitory concentration (IC50) at PI3Kalpha turned out to be 0.67 nM. Also, the EC50 in the test on H460 cells turned out to be 8 nM; in the test on MB453 cells, 22 nM; with U87 cells, 38 nM; with MCF7 cells it was 5 nM; with BT474 cells, 9 nM.

On to `CCc1ncnc(-c2ccccc2)c1C#Cc1cnc(C)c(NS(C)(=O)=O)c1` [Example 52, N-[5-(4-Ethyl-6-phenyl-pyrimidin-5-ylethynyl)-2-methyl-pyridin-3-yl]-methanesulfonamide], for which, at PI3Kalpha, the IC50 came to 3 nM. Moreover, the EC50 in the test on H460 cells amounted to 1210 nM; with MB453 cells, 452 nM; with U87 cells, 1020 nM; in the test with MCF7 cells it was 154 nM; with BT474 cells, 520 nM.

With `CCc1ncnc(-c2ccc(C(=O)N3CCN(C)CC3)c(F)c2)c1C#Cc1cnc(C)c(NS(=O)(=O)c2ccc(F)cc2F)c1` [Example 27, N-(5-{4-Ethyl-6-[3-fluoro-4-(4-methyl-piperazine-1-carbonyl)-phenyl]-pyrimidin-5-ylethynyl}-2-methyl-pyridin-3-yl)-2,4-difluoro-benzenesulfonamide], the IC50 at PI3Kalpha was 0.5 nM. The EC50 with H460 cells came out at 192 nM; in the test with MB453 cells, 33 nM; with U87 cells it was 75 nM; with MCF7 cells, 11 nM; with BT474 cells, 51 nM.

As for `Cc1cc(C)cc(-c2ncnc(C)c2C#Cc2cnc(C)c(NS(C)(=O)=O)c2)c1` [Example 43, N-{5-[4-(3,5-Dimethyl-phenyl)-6-methyl-pyrimidin-5-ylethynyl]-2-methyl-pyridin-3-yl}-elmethanesulfonamide], the half-inhibitory concentration (IC50) at PI3Kalpha is 3 nM. Further, the EC50 in the test with H460 cells was 337 nM; with MB453 cells it was 639 nM; in the test with U87 cells, 900 nM; in the test with MCF7 cells, 270 nM; in the test on BT474 cells, 897 nM.

In the case of `CCc1ncnc(-c2ccc(F)cc2F)c1C#Cc1cnc(C)c(NS(C)(=O)=O)c1` [Example 63, N-{5-[4-(2,4-Difluoro-phenyl)-6-ethyl-pyrimidin-5-ylethynyl]-2-methyl-pyridin-3-yl}-methanesulfonamide], the IC50 at PI3Kalpha amounted to 4 nM. The EC50 amounted to 1110 nM in the test with H460 cells; 1180 nM in the test with MB453 cells; 1880 nM with U87 cells; 734 nM in the test on MCF7 cells; 1540 nM in the test with BT474 cells.
